Data taken from patent publication US20250320211A1, “COMPOUND, COMPOSITION, AND ELECTROPHOTOGRAPHIC PHOTORECEPTOR” (MITSUBISHI CHEMICAL CORPORATION, priority 2022, published 2025).

Test: Evaluation of solubility in organic solvent
Assay type: physicochemical
Settings: toluene/2-propanol mixed solvent
Experimental: Compounds 1 to 2 or Comparative Compounds 1 to 5 were respectively added to a mixed solvent of toluene/2-propanol=3/7 (mass ratio) at room temperature (25° C.) so as to have a concentration of 8% by mass, and stirred for 10 minutes with a rotor without heating or cooling. The state of dissolution was then visually observed, and the solubility was evaluated according to the following criteria.
When any residue was observed, the mixture was heated in a water bath at a constant temperature (40° C.) for 10 minutes as described below, and the state of dissolution was visually observed again to evaluate the solubility.

| Structure (SMILES) | solubility in organic solvents (in words) |
| --- | --- |
| C=C(C)C(=O)OCC(COC(=O)C(=C)C)OC(=O)CCC(=O)OCC(COC(=O)CCC(=O)OC(COC(=O)C(=C)C)COC(=O)C(=C)C)N1C(=O)c2ccc3c4ccc5c6c(ccc(c7ccc(c2c37)C1=O)c64)C(=O)N(C(COC(=O)CCC(=O)OC(COC(=O)C(=C)C)COC(=O)C(=C)C)COC(=O)CCC(=O)OC(COC(=O)C(=C)C)COC(=O)C(=C)C)C5=O [Comparative Compound 5] | excellent solubility in organic solvents |
| C=C(C)C(=O)OCC(COC(=O)C(=C)C)OC(=O)CCC(=O)OCC(CC(C)C)N1C(=O)c2ccc3c4ccc5c6c(ccc(c7ccc(c2c37)C1=O)c64)C(=O)N(C(COC(=O)CCC(=O)OC(COC(=O)C(=C)C)COC(=O)C(=C)C)CC(C)C)C5=O (stereo not shown) [Comparative Compound 4] | excellent solubility in organic solvents |
| C=CC(=O)OCCOC(=O)CCC(=O)OCC(CC(C)C)N1C(=O)c2ccc3c4ccc5c6c(ccc(c7ccc(c2c37)C1=O)c64)C(=O)N(C(COC(=O)CCC(=O)OCCOC(=O)C=C)CC(C)C)C5=O (stereo not shown) [Comparative Compound 3] | poor solubility |
| CCCCCCC(CCCCCC)N1C(=O)c2ccc3c4ccc5c6c(ccc(c7ccc(c2c37)C1=O)c64)C(=O)N(C(CCCCCC)CCCCCC)C5=O [Comparative Compound 2] | poor solubility |
